Experimental data from patent publication US7601733B2, “5(S)-(2′-hydroxyethoxy)-20(S)-camptothecin and its preparation and use for the treatment of cancer” (priority 2006, dated 2009).

Legend:
NCI-H460 xenografts = test: NCI-H460 xenograft study in nude mice; type: in vivo; details: oral, (d×5)2 schedule, deaths/animals
Procedure: Protocol of Comparison Study of 5(RS)-(2′-hydroxyethoxy)-20(S)-camptothecin and 5(S)-(2′-hydroxyethoxy)-20(S)-camptothecin Against NCl-H460 Xenograft in Nude Mice:
Ti is the mean tumor volume.
Percentage tumor growth inhibition was calculated using the formula: Percentage Tumor growth inhibition=100−% T/C.
The other parameter observed was mortality.

[1] = tested on: Human bone marrow mononuclear cells; test: Human bone marrow assay (CFU-GM colony inhibition); type: cell-based; details: relative to 5(R) diastereoisomer
Procedure: Protocol for Human Bone Marrow Assay:
Methocult™ GF (Cat No: H4534, Poietics, Biowhittakar, USA) medium comprising Methycellulose in Iscove's MDM, Fetal bovine serum, Bovine serum albumin, 2-Mercaptoethanol, L-Glutamine, rhStem cell factor, rhGM-CSF and rhIL-3 was used for the assay. Human bone marrow mononuclear cells (Cat No. 2M-125C, Poietics, Biowhittakar, USA) were mixed with Methocult GF and the cell density was adjusted to 3×10^5 cells/ml. From this preparation, 500 μL aliquots were made and 2.5 μL of 20× drug solution or vehicle was added to each aliquot and mixed thoroughly. 100 μL of clonogenic medium was plated into each well and the plates were allowed to gel at 4° C. for 15 minutes. Plates were incubated at 37° C. in a fully humidified atmosphere of 5% CO2 in an incubator for 14 days. CFU-GM colonies were counted under an inverted microscope as aggregates of 50 cells or more. The percentage colony inhibition was calculated using the following formula: 100−[(number of colonies in drug treated wells/Number of colonies in control wells)×100].
The in vitro potency of the two diastereomers against cancer cell lines had been compared with their in vitro toxicity in healthy cells.

[2] = tested on: Saos-2 cells over expressing non-functional BCRP mut#10; type: cell-based, human
Procedure: (§1) Protocol for Breast Cancer Resistance Protein (BCRP) Assay:
(§2) The anticancer effect of 5(S)-(2′-hydroxyethoxy)-20(S)-camptothecin & 5(R)-(2′-hydroxyethoxy)-20(S)-camptothecin were evaluated versus the racemate 5(RS)-(2′-hydroxyethoxy)-20(S)-camptothecin on Saos-2 cells over expressing functional BCRP#4 and non-functional BCRP mut#10. The human osteosarcoma cell line, Saos-2, was obtained from ATCC (American Type Culture Collection, Cat#HTB-85, Manassas, Va.) and were maintained in DMEM containing 10% fetal bovine serum, 1% penicillin/streptomycin, and 2 mM glutamine. Saos-2 cells were transfected with either BCRP#4 to over express functional BCRP or BCRP#10 to over express non-functional BCRP transporter. The cells were plated in 96-well plates at a density of 1000 cells per each well in a 0.1 ml of medium and allowed to attach overnight. The next morning the medium was gently aspirated and serial dilutions of the compounds to be tested were added. The cells were incubated at 37° C. in a 5% CO2 incubator. […] The amount of the fluorescent dye produced was measured on a Cytofluor® 2300(Millipore, Bedford, Mass.) using an excitation wavelength of 530 nm and emission wavelength of 590 nm. The relative fluorescence units obtained were used to calculate the percentage growth at each concentration in relation to the untreated control values. […]

[3] = tested on: Saos-2 cells over expressing functional BCRP#4; type: cell-based, human
Procedure: as §1, §2

[4] = cited from earlier work

SMILES	Mortality (NCI-H460 xenografts; 2 mg/kg)	Mortality (NCI-H460 xenografts; 4 mg/kg)	safety margin (GI90/GI50) compared with that of the 5(R) diastereoisomer [1]	fold more cytotoxic than 5(R)-(2′-hydroxyethoxy)-20(S)-camptothecin [2]	fold more cytotoxic than 5(R)-(2′-hydroxyethoxy)-20(S)-camptothecin [3]	water solubility [4]
CC[C@@]1(O)C(=O)OCc2c1cc1n(c2=O)C(OCCO)c2cc3ccccc3nc2-1 (mixture of isomers) [4(S)-Ethyl-4-hydroxy-12(RS)-(2-hydroxyethoxy)-1,12-dihydro-4H-2-oxa-6,12a-diaza-dibenzo[b,h]fluorine-3,13-dione, reference compound]	0/5	0/5				
CC[C@@]1(O)C(=O)OCc2c1cc1n(c2=O)[C@@H](OCCO)c2cc3ccccc3nc2-1 [4-(S)-Ethyl-4-hydroxy-12(S)-(2-hydroxyethoxy)-1,12-dihydro-4H-2-oxa-6,12a-diazadibenzo[b,h] fluorene-3,13-dione]	0/5	0/5	over twice	~6 fold	> 2.5 fold	
CC[C@@]1(O)C(=O)OCc2c1cc1n(c2=O)Cc2cc3ccccc3nc2-1 [camptothecin, Camptothecin]						poorly water soluble
